Patent US20220386606A1, “SPECIFICALLY SUBSTITUTED 3-PHENYL-5-SPIROCYCLOPENTYL-3-PYRROLIN-2-ONES AND THEIR USE AS HERBICIDES” (Bayer Aktiengesellschaft, priority 2019, published 2022)

Legend:
AMARE [1] = assay: Pre-emergence herbicidal action against AMARE; assay type: in vivo, Amaranthus retroflexus; settings: 320 g/ha
Method in brief: (§1)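 Visual scoring after 3 weeks in the greenhouse gives percent activity (100% = dead, 0% = like untreated). Compounds, formulated as WP or EC, were applied to the soil surface over freshly sown seeds in sandy loam, water rate 600 to 800 L/ha plus 0.2% wetting agent.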

DIGSA [2] = assay: Post-emergence herbicidal action against DIGSA; assay type: in vivo, Digitaria sanguinalis; settings: 80 g/ha, visual assessment about 3 weeks after treatment vs untreated controls
Method in brief: (§2)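 Herbicidal action is rated visually in percent against untreated controls, where 100% means dead plants and 0% means no difference. Ratings come about 3 weeks after foliar spraying of one-leaf-stage plants with aqueous WP or EC preparations plus 0.2% wetting agent at 600 to 800 l/ha.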

ECHCG [3] = assay: Pre-emergence herbicidal action against ECHCG; assay type: in vivo, Echinochloa crus-galli; settings: 320 g/ha, scored visually after 3 weeks vs untreated controls
Method in brief: as §1

SETVI [4] = assay: Pre-emergence herbicidal action against SETVI; assay type: in vivo, Setaria viridis; settings: 320 g/ha, scored visually after 3 weeks vs untreated controls
Method in brief: as §1

DIGSA [5] = assay: Pre-emergence herbicidal action against DIGSA; assay type: in vivo, Digitaria sanguinalis; settings: 320 g/ha, scored visually after 3 weeks vs untreated controls
Method in brief: as §1

ECHCG [6] = assay: Post-emergence herbicidal action against ECHCG; assay type: in vivo, Echinochloa crus-galli; settings: 80 g/ha, visual assessment about 3 weeks after treatment vs untreated controls
Method in brief: as §2

MATIN = assay: Pre-emergence herbicidal action against MATIN; assay type: in vivo; settings: 320 g/ha
Method in brief: as §1

ALOMY [7] = assay: Post-emergence herbicidal action against ALOMY; assay type: in vivo, Alopecurus myosuroides; settings: 80 g/ha, visual assessment after about 3 weeks
Method in brief: as §2

ALOMY [8] = assay: Pre-emergence herbicidal action against ALOMY; assay type: in vivo, Alopecurus myosuroides; settings: 320 g/ha, scored visually after 3 weeks vs untreated controls
Method in brief: as §1

VIOTR [9] = assay: Post-emergence herbicidal action against VIOTR; assay type: in vivo, Viola tricolor; settings: 80 g/ha, visual assessment about 3 weeks after treatment vs untreated controls
Method: (§3) Seeds of monocotyledonous and dicotyledonous weed and crop plants are laid out in sandy loam soil in wood-fiber pots, covered with soil and cultivated in a greenhouse under good growth conditions. 2 to 3 weeks after sowing, the test plants are treated at the one-leaf stage. The compounds of the invention, formulated in the form of wettable powders (WP) or as emulsion concentrates (EC), are then sprayed onto the green parts of the plants as aqueous suspension or emulsion at a water application rate equating to 600 to 800 l/ha with addition of 0.2% wetting agent. After the test plants have been left to stand in the greenhouse under optimal growth conditions for about 3 weeks, the action of the preparations is assessed visually in comparison to untreated controls (herbicidal action in percent (%): 100% activity=the plants have died, 0% activity=like control plants).

POLCO = assay: Pre-emergence herbicidal action against POLCO; assay type: in vivo, Polygonum convolvulus; settings: 320 g/ha
Method in brief: as §1

SETVI [10] = assay: Post-emergence herbicidal action against SETVI; assay type: in vivo, Setaria viridis; settings: 80 g/ha, visual assessment about 3 weeks after treatment vs untreated controls
Method in brief: as §2

AVEFA [11] = assay: Post-emergence herbicidal action against AVEFA; assay type: in vivo, Avena fatua; settings: 80 g/ha, visual assessment after about 3 weeks
Method in brief: as §2

LOLRI [12] = assay: Pre-emergence herbicidal action against LOLRI (Table 8, titled post-emergence at 320 g/ha); assay type: in vivo, Lolium rigidum; settings: table stands in the pre-emergence section
Method in brief: as §1

ABUTH [13] = assay: Post-emergence herbicidal action against ABUTH; assay type: in vivo, Abutylon threophrasti; settings: 80 g/ha, visual assessment about 3 weeks after treatment vs untreated controls
Method in brief: as §2

LOLRI [14] = assay: Post-emergence herbicidal action against LOLRI; assay type: in vivo, Lolium rigidum; settings: 80 g/ha, visual assessment about 3 weeks after treatment vs untreated controls
Method in brief: as §2

VIOTR [15] = assay: Pre-emergence herbicidal action against VIOTR; assay type: in vivo, Viola tricolor; settings: 320 g/ha
Method in brief: as §1

AVEFA [16] = assay: Pre-emergence herbicidal action against AVEFA; assay type: in vivo, Avena fatua; settings: 320 g/ha, scored visually after 3 weeks vs untreated controls
Method in brief: as §1

AMARE [17] = assay: Post-emergence herbicidal action against AMARE; assay type: in vivo, Amaranthus retroflexus; settings: 80 g/ha, visual assessment about 3 weeks after treatment vs untreated controls
Method: as §3

HORMU = assay: Post-emergence herbicidal action against HORMU; assay type: in vivo, Hordeum murinum; settings: 80 g/ha, visual assessment about 3 weeks after treatment vs untreated controls
Method in brief: as §2

ABUTH [18] = assay: Pre-emergence herbicidal action against ABUTH; assay type: in vivo, Abutylon threophrasti; settings: 320 g/ha
Text: Seeds of monocotyledonous and dicotyledonous weed plants and crop plants are laid out in sandy loam soil in wood-fiber pots and covered with soil. The compounds of the invention, formulated in the form of wettable powders (WP) or as emulsion concentrates (EC), are then applied to the surface of the covering soil as aqueous suspension or emulsion at a water application rate equating to 600 to 800 L/ha with addition of 0.2% wetting agent.
After the treatment, the pots are placed in a greenhouse and kept under good growth conditions for the trial plants. The damage to the test plants is scored visually after a test period of 3 weeks by comparison with untreated controls (herbicidal activity in percent (%): 100% activity=the plants have died, 0% activity=like control plants).

VERPE = assay: Pre-emergence herbicidal action against VERPE; assay type: in vivo, Veronica persica; settings: 320 g/ha
Method in brief: as §1

| Structure (SMILES) | Post-emergence action against DIGSA in % (DIGSA [2]) | Pre-emergence action against ECHCG in % (ECHCG [3]) | Pre-emergence action against SETVI in % (SETVI [4]) | Pre-emergence action against DIGSA in % (DIGSA [5]) | Post-emergence action against ECHCG in % (ECHCG [6]) | Post-emergence action against ALOMY in % (ALOMY [7]) | Pre-emergence action against ALOMY in % (ALOMY [8]) | Post-emergence action against VIOTR in % (VIOTR [9]) | Post-emergence action against SETVI in % (SETVI [10]) | Post-emergence action against AVEFA in % (AVEFA [11]) | Pre-emergence herbicidal action against LOLRI in % (LOLRI [12]) | Post-emergence action against ABUTH in % (ABUTH [13]) | Post-emergence action against LOLRI in % (LOLRI [14]) | Pre-emergence action against VIOTR in % (VIOTR [15]) | Pre-emergence action against AVEFA in % (AVEFA [16]) | other results |
| --- | --- | --- | --- | --- | --- | --- | --- | --- | --- | --- | --- | --- | --- | --- | --- | --- |
| CC#Cc1cc(C)c(C2=C(O)C3(CCC(COC)C3)NC2=O)c(Br)c1 (centres unmarked) [Example I-19] | 100% | 100% | 100% | 100% | 100% | 100% | 100% | 80% | 100% | 90% | 100% | 90% | 100% | 100% | 100% | Pre-emergence action against AMARE in % (AMARE [1]): 100%; Pre-emergence action against MATIN in % (MATIN): 80%; Pre-emergence action against POLCO in % (POLCO): 100% |
| CC#Cc1cc(F)c(C2=C(O)C3(CCC(COC)C3)NC2=O)c(OC)c1 (centres unmarked) [Example I-40] | 100% | 100% | 100% | 100% | 100% | 100% | 100% |  | 100% | 90% | 90% |  | 90% |  | 100% | Post-emergence action against AMARE in % (AMARE [17]): 80% |
| C=CCOCC1CCC2(C1)NC(=O)C(c1c(C)cc(C#CC)cc1OC)=C2O (centres unmarked) [Example I-47] |  | 100% | 100% | 100% | 100% | 100% | 100% | 100% |  | 90% | 100% |  | 100% | 100% | 90% |  |
| CC#Cc1cc(C)c(C2=C(OC(=O)C(C)C)C3(CCC(COCC)C3)NC2=O)c(Cl)c1 (centres unmarked) [Example P-17] | 100% |  |  |  | 100% | 100% |  | 80% | 100% | 100% |  | 90% | 100% |  |  | Post-emergence action against HORMU in % (HORMU): 100% |
| CC#Cc1cc(C)c(C2=C(OC(=O)OCC)C3(CCC(COCC)C3)NC2=O)c(Br)c1 (centres unmarked) [Example P-34] | 100% | 100% | 100% | 100% | 100% | 100% | 100% | 80% | 100% | 90% | 100% |  | 90% | 100% | 100% | Pre-emergence action against ABUTH in % (ABUTH [18]): 90%; Pre-emergence action against VERPE in % (VERPE): 80% |
